The results in this text go back to US12685731B2, “Organic compounds” (INTRA-CELLULAR THERAPIES, INC., priority 2018, dated 2026).

The nature of data set [1]: Measurement of parent and metabolite levels in mice (plasma and brain levels after single oral co-dosing). The data set is classed as in vivo. Conditions: for Cmax / Tmax / AUC / concentration at […] / concentration at 0.5 h / concentration at 1 h / concentration at 2 h / concentration at 4 h: mouse, single dose oral, co-dosed; for AUC: 0.25-4 hr sampling; for concentration at […]: 0.25 hr. How it is done: The compound of Example 1 and the compound of Formula Q are co-dosed in mice (n=3), and the levels of the both compounds are studied. Procedures for the synthesis of the compound of Formula Q can be found in WO 2008/112280. […] The mean values for maximum concentration, time to maximum concentration, and Area Under the Curve (AUC) for both compounds is determined.

Data set [2] relates to serotonin receptor (e.g., 5-HT2A). Nature of the data set: Receptor binding studies, serotonin receptor.
For data set [3], the system named is dopamine receptor (e.g., D2). Nature of the data set: Receptor binding studies, dopamine receptor.
Another data set concerns the target serotonin transporter (Homo sapiens, UniProt P31645). Nature of the data set: Receptor binding studies, serotonin transporter.
Where [4] appears, read: mean n=3, brain, read-out: Brain level.
Setting [5] is: mean n=3, plasma, read-out: Plasma level.

Where two headings read alike, the source gives them in different places.

Sequence of serotonin transporter (P31645 whole entry): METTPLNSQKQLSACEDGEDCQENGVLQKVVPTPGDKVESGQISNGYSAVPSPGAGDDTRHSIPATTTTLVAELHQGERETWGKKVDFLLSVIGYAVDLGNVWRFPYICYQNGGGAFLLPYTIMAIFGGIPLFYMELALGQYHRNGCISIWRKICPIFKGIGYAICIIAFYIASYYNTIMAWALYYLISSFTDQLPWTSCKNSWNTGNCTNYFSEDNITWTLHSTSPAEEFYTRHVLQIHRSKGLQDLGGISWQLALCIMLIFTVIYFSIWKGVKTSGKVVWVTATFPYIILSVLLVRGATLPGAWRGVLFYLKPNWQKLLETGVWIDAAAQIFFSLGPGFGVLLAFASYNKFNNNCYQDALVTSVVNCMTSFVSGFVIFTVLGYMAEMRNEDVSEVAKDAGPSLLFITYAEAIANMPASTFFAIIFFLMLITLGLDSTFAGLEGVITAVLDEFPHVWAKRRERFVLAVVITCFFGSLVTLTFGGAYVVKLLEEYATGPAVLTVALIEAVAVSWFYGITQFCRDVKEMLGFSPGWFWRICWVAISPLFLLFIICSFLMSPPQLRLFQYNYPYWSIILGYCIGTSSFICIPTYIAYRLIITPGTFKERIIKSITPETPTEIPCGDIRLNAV

Take `[2H]C1([2H])N(C)c2cccc3c2N([C@H]2CCN(CCCC(=O)c4ccc(F)cc4)C[C@@H]32)C1([2H])[2H]` [Example 1, 1-(4-fluorophenyl)-4-((6bR,10aS)-1,1,2,2-tetradeuterio-3-methyl-2,3,6b,7,10,10a-hexahydro-1H-pyrido[3′,4′:4,5]pyrrolo[1,2,3-de]quinoxalin-8(9H)-yl) butan-1-one p-toluenesulfonate]: the “Metabolic clearance compared to the compound of Formula Q” value in data set [1] (concluded from higher Cmax and AUC values) is “reduced metabolic clearance”. In addition, in data set [1] (brain), the Cmax is 402 ng/g, the Tmax worked out at 30 min and the AUC was 404 ng·h/mL. Further, in data set [1] (setting [4]), the concentration at […] was 238 ng/g, the concentration at 0.5 h was found to be 402 ng/g, the concentration at 1 h is 39.4 ng/g and the concentration at 2 h worked out at 67.7 ng/g. For the same molecule, in data set [1] (setting [4]), the concentration at 4 h was 62.1 ng/g. Moreover, in data set [1] (setting [5]), the concentration at […] worked out at 30.4 ng/mL, the concentration at 0.5 h amounted to 38.1 ng/mL, the concentration at 1 h was determined as 11.6 ng/mL and the concentration at 2 h stood at 31.4 ng/mL. The concentration at 4 h in data set [1] (setting [5]) was 16.8 ng/mL. Also, in data set [1] (plasma), the Cmax turned out to be 38.1 ng/mL, the Tmax stood at 30 min and the AUC came to 94.5 ng·h/mL. Also, in data set [2], the “Receptor binding profile compared to the compound of Formula Q” value was “substantially the same receptor binding profile”. Besides, the “Receptor binding profile compared to the compound of Formula Q” value in data set [3] is given as “substantially the same receptor binding profile”. Also, on serotonin transporter, the “Receptor binding profile compared to the compound of Formula Q” value is given as “substantially the same receptor binding profile”.

As to `CN1CCN2c3c(cccc31)[C@@H]1CN(CCCC(=O)c3ccc(F)cc3)CC[C@@H]12` [Formula Q, reference compound], in data set [1] (brain), the Cmax stood at 384 ng/g, the Tmax is 30 min and the AUC stood at 387 ng·h/mL. In addition, in data set [1] (setting [4]), the concentration at […] came out at 228 ng/g, the concentration at 0.5 h is 384 ng/g, the concentration at 1 h was found to be 37.9 ng/g and the concentration at 2 h was determined as 65.6 ng/g. Besides, the concentration at 4 h in data set [1] (setting [4]) came out at 58.8 ng/g. In addition, in data set [1] (setting [5]), the concentration at […] is 28.2 ng/mL, the concentration at 0.5 h came out at 34.9 ng/mL, the concentration at 1 h was determined as 11 ng/mL and the concentration at 2 h amounted to 29.9 ng/mL. Moreover, the concentration at 4 h in data set [1] (setting [5]) was 16.3 ng/mL. In data set [1] (plasma), the Cmax came to 34.9 ng/mL, the Tmax stood at 30 min and the area under the curve (AUC) amounted to 89.5 ng·h/mL.
